20 molecules from publication PMC8286840, “Identifying SARS-CoV-2 antiviral compounds by screening for small molecule inhibitors of Nsp3 papain-like protease” (Biochemical Journal, 2021) can be followed below.

The target of assay [1] is T1, SARS-CoV-2 PLpro (nsp3 1564–1878) (Severe acute respiratory syndrome coronavirus 2, UniProt P0DTD1). Put plainly: biochemical. More on the design: FRET-quenched peptide (Pro3) cleavage by PLpro, 10 min pre-incubation, slope over 20 min, normalised to no-compound control. To be noted: low concentration screen, read-out: % of control remaining.
The target in assay [2] is T1, SARS-CoV-2 PLpro (nsp3 1564–1878). Nature of the assay: biochemical. Also on record: FRET-quenched peptide (Pro3) cleavage by PLpro, 10 min pre-incubation, slope over 20 min, normalised to no-compound control. The settings on record: high concentration screen, read-out: % of control remaining.

SMILES strings stand for the structures. Where a name gives a salt, the structure may show the parent alone. Read-outs that look alike come from different tables or passages of the source.

Turning to `CCCCCCCC/C=C\CCCCCCCC(=O)OCC(CO)OC(=O)CCCCCCC/C=C\CCCCCCCC` (stereo not shown) [1,2-Dioleoyl-glycerol (18:1)], the remaining activity at 1.25 µM in assay [1] (Well no.=4478) amounted to 96%. Besides, the remaining activity at 3.75 µM in assay [2] (Well no.=4478) came out at 100%.

For the molecule `S=c1ccss1` [1,2-Dithiole-3-thione], the remaining activity at 1.25 µM in assay [1] (Well no.=4139) was 93.1%. Further, in assay [2] (Well no.=4139), the remaining activity at 3.75 µM came out at 94.1%.

Turning to `CCCc1c(-c2ccc(O)cc2)nn(-c2ccc(O)cc2)c1-c1ccc(O)cc1` [1,3,5-tris(4-hydroxyphenyl)-4-propyl-1H-pyrazole], the remaining activity at 1.25 µM in assay [1] (Well no.=468) was determined as 105%. Moreover, the remaining activity at 3.75 µM in assay [2] (Well no.=468) was 109%.

As for `CCn1c(=O)c2[nH]c(-c3ccccc3)nc2n(CC)c1=O` [1,3-Diethyl-8-phenylxanthine], in assay [1] (Well no.=204), the remaining activity at 1.25 µM was 98.5%. In addition, in assay [2] (Well no.=204), the remaining activity at 3.75 µM worked out at 100%.

For `Cn1c(=O)c2[nH]c(-c3ccccc3)nc2n(C)c1=O` [1,3-Dimethyl-8-phenylxanthine], the remaining activity at 1.25 µM in assay [1] (Well no.=952) turned out to be 103%. Further, in assay [2] (Well no.=952), the remaining activity at 3.75 µM was 99.2%.

On to `Cn1c(=O)c2[nH]c(=O)[nH]c2n(C)c1=O` [1,3-Dimethyluric acid], for which, in assay [1] (Well no.=6819), the remaining activity at 1.25 µM is 99.4%. The remaining activity at 3.75 µM in assay [2] (Well no.=6819) came to 95.7%.

Turning to `CCCn1c(=O)c2c(ncn2C)n(CCC)c1=O` [1,3-Dipropyl-7-methylxanthine], the remaining activity at 1.25 µM in assay [1] (Well no.=448) came to 102%. For the same molecule, the remaining activity at 3.75 µM in assay [2] (Well no.=448) was 101%.

Turning to `N=C(N)SCCc1cccc(CCSC(=N)N)c1` [1,3-PBIT dihydrobromide], the remaining activity at 1.25 µM in assay [1] (Well no.=1159) is 104%. Moreover, the remaining activity at 3.75 µM in assay [2] (Well no.=1159) is 104%.

With `OC[C@H]1NC[C@@H](O)[C@@H]1O` [1,4-Dideoxy-1,4-imino-D-arabinitol], the remaining activity at 1.25 µM in assay [1] (Well no.=589) is 102%. Further, the remaining activity at 3.75 µM in assay [2] (Well no.=589) worked out at 100%.

Consider `OC[C@@H](O)[C@H]1NC[C@@H](O)[C@H]1O` [1,4-Dideoxy-1,4-imino-D-mannitol hydrochloride], for which, in assay [1] (Well no.=536), the remaining activity at 1.25 µM was 101%. Also, in assay [2] (Well no.=536), the remaining activity at 3.75 µM is 99.2%.

For the molecule `N=C(N)SCCc1ccc(CCSC(=N)N)cc1` [1,4-PBIT dihydrobromide], in assay [1] (Well no.=1255), the remaining activity at 1.25 µM was 104%. In addition, the remaining activity at 3.75 µM in assay [2] (Well no.=1255) turned out to be 105%.

Regarding `O=c1[nH]ccc2c(O)cccc12` [1,5-Isoquinolinediol], in assay [1] (Well no.=827), the remaining activity at 1.25 µM amounted to 97.8%. For the same molecule, in assay [2] (Well no.=827), the remaining activity at 3.75 µM came out at 99.5%.

For `Cn1c(=O)[nH]c2ncn(C)c2c1=O` [1,7-Dimethylxanthine], in assay [1] (Well no.=691), the remaining activity at 1.25 µM came out at 98.6%. The remaining activity at 3.75 µM in assay [2] (Well no.=691) was found to be 99.7%.

In the case of `NCCCCCCCCCCN` [1,10-Diaminodecane], in assay [1] (Well no.=642), the remaining activity at 1.25 µM worked out at 94.7%. Moreover, the remaining activity at 3.75 µM in assay [2] (Well no.=642) worked out at 91.7%.

In the case of `c1cnc2c(c1)ccc1cccnc12` [1,10-Phenanthroline monohydrate], in assay [1] (Well no.=1259), the remaining activity at 1.25 µM was found to be 101%. In addition, in assay [2] (Well no.=1259), the remaining activity at 3.75 µM came to 101%.

With `c1ccc2c(N3CCNCC3)cccc2c1` [1-(1-Naphthyl)piperazine hydrochloride], the remaining activity at 1.25 µM in assay [1] (Well no.=1467) amounted to 99.5%. The remaining activity at 3.75 µM in assay [2] (Well no.=1467) stood at 99.2%.

For the molecule `Clc1ccc(C(c2ccccc2Cl)C(Cl)Cl)cc1` (stereo not shown) [1-(2-Chlorophenyl)-1-(4-chlorophenyl)-2,2-dichloroethane], the remaining activity at 1.25 µM in assay [1] (Well no.=76) is 96.7%. Besides, the remaining activity at 3.75 µM in assay [2] (Well no.=76) was 97.1%.

For the molecule `COc1ccccc1N1CCNCC1` [1-(2-Methoxyphenyl)piperazine hydrochloride], in assay [1] (Well no.=1181), the remaining activity at 1.25 µM turned out to be 104%. Moreover, in assay [2] (Well no.=1181), the remaining activity at 3.75 µM was 102%.

Consider `O=c1[nH]c2ccccc2n1CCN1CCN(c2cccc(C(F)(F)F)c2)CC1` [1-(2-{4-[3-(trifluoromethyl)phenyl]-1-piperazinyl}ethyl)-1,3-dihydro-2H-benzimidazol-2-one], for which, in assay [1] (Well no.=5866), the remaining activity at 1.25 µM is 103%. In addition, in assay [2] (Well no.=5866), the remaining activity at 3.75 µM came to 97.9%.

Take `CCCCCC(=O)c1c(O)c(Cl)c(OC)c(Cl)c1O` [1-(3,5-dichloro-2,6-dihydroxy-4-methoxyphenyl)-1-hexanone]: the remaining activity at 1.25 µM in assay [1] (Well no.=5626) came out at 99.3%. Besides, the remaining activity at 3.75 µM in assay [2] (Well no.=5626) was 102%.
